Several values for one entry are separate records, joined by “and”; a condition that tells them apart may be missing. Equal values may be shown once. Entries after “also recorded” stand apart in the source; their conditions may differ.
Legend:
CFTR = molecular target: T1, CFTR (Homo sapiens, UniProt P13569); test: Short-circuit current in FRT cells expressing wild type CFTR; format: cell-based; settings: forskolin 20 µM stimulated
T1 construct: expressed in transfected cells; host or cells: FRT cells
T1 sequence (P13569 whole entry, species assumed): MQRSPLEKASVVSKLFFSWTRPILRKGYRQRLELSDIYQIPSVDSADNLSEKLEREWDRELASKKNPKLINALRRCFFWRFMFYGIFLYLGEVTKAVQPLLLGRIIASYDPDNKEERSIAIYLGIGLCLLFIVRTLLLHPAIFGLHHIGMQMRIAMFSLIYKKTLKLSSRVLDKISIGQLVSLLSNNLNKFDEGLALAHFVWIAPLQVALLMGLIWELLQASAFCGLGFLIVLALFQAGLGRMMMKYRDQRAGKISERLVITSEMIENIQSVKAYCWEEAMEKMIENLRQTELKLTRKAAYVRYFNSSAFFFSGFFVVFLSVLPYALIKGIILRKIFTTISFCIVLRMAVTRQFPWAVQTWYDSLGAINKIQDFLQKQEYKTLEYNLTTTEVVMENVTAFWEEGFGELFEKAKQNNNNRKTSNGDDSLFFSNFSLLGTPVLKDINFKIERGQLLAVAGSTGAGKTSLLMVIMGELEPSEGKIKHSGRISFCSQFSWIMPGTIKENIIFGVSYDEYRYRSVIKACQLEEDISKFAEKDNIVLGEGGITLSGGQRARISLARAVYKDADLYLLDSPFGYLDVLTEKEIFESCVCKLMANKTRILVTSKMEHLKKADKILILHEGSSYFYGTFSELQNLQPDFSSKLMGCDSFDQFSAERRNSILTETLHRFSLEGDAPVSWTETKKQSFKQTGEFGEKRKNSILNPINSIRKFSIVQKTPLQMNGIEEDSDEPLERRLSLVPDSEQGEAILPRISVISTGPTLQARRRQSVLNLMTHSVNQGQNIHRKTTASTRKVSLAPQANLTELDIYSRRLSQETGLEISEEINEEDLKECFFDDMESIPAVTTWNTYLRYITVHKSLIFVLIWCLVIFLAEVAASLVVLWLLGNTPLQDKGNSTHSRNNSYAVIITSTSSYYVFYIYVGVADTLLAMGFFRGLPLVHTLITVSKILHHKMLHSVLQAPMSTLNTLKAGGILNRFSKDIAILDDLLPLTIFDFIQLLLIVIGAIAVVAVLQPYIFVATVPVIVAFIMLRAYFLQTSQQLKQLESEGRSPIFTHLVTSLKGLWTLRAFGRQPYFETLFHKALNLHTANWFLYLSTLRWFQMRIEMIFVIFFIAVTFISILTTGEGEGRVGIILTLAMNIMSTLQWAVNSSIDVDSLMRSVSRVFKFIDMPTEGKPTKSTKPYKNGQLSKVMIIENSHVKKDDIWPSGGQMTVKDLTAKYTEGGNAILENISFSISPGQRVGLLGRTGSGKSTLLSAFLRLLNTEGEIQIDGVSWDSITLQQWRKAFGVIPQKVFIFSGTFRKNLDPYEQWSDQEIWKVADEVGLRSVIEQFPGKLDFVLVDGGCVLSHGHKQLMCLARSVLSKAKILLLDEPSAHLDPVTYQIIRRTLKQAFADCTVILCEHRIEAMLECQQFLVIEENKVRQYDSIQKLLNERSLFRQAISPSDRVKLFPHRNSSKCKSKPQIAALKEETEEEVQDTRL
Description: Snapwell inserts containing TMEM16A-expressing FRT cells or T84 cells were mounted in Ussing chambers (Physiologic Instruments, San Diego, CA). Activators and inhibitors (herbal formulation, eugenol, ionomycin, tannic acid, forskolin, CFTRinh-172, ATP, Eact, T16Ainh-A01) were added to the apical solution and an equal volume of vehicle was added at the same time to the basolateral solution. […] For FRT cells, the hemichambers were filled with a half-Cl^− solution (apical) and the HCO3 ^−-buffered solution (basolateral), and the basolateral membrane was permeabilized with 250 µg/mL amphotericin B. Cells were bathed for a 10 min stabilization period and aerated with 95% O2/5% CO2 at 37°C or room temperature. Short-circuit current was measured using an EVC4000 Multi-Channel V/I Clamp (World Precision Instruments, Sarasota, FL).

human TMEM16A [1] = molecular target: T2, human TMEM16A (Homo sapiens, UniProt Q5XXA6); test: Short-circuit current in TMEM16A-expressing FRT cells; format: cell-based
T2 sequence (Q5XXA6 1-986): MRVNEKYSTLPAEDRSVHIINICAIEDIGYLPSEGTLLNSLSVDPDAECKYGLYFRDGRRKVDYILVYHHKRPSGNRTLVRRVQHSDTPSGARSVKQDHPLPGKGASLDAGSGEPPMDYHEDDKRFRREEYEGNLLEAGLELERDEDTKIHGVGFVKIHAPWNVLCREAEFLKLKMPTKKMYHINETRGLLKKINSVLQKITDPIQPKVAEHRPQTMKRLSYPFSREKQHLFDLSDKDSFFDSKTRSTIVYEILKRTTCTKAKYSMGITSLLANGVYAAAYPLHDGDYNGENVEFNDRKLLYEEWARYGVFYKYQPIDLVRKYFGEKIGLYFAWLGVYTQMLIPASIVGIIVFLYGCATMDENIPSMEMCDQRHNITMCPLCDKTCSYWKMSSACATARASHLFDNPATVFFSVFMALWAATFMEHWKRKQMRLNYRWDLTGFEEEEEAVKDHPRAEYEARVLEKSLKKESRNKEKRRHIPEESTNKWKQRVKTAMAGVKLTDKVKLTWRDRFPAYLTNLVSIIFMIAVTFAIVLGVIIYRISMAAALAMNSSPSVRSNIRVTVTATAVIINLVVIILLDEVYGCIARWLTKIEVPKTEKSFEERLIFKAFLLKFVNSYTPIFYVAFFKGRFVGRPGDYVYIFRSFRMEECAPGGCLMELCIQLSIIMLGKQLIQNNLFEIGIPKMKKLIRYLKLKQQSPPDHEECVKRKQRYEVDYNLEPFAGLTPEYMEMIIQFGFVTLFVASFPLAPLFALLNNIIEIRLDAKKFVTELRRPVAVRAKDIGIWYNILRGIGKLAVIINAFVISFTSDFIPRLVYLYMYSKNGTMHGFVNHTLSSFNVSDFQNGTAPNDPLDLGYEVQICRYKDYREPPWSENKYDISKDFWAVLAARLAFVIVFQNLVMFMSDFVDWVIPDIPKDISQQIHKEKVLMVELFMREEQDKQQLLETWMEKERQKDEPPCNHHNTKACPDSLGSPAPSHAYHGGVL
Description: (§1) FRT cells stably expressing human TMEM16A and the halide sensor YFP-H148Q/I152L/F46L were generated as described. Cells were plated in 96-well black-walled microplates (Corning Inc., Corning, NY) at a density of 20,000 cells per well in Coon's modified F12 medium supplemented with 5% fetal calf serum, 2 mM L-glutamine, 100 U/mL penicillin and 100 µg/mL streptomycin. T84 cells were cultured in DMEM/Ham's F-12 (1∶1) medium containing 10% FBS, 100 U/ml penicillin and 100 µg/ml streptomycin. A commercially available Thai herbal formulation (Krisanaklan, Osotspa Inc., Bangkapi, Thailand) consists of an ethanol/water (54∶46) extract in which each 100 mL was obtained from 10 g of Aquilaria crassna bark, 33.3 g of clove flower bud, 2 g of Terminalia triptera Stapf bark and 4.8 g of camphor flower bud. HPLC grade solvents were purchased from Fisher Scientific (Fairlawn, VA) and EMD Chemical Inc. (Philadelphia, PA). Eugenol and eugenol analog 2 were purchased from Sigma-Aldrich (St. Louis, MO). Other eugenol analogs were purchased from Fisher Scientific (Pittsburgh, PA).
(§2) Snapwell inserts containing TMEM16A-expressing FRT cells or T84 cells were mounted in Ussing chambers (Physiologic Instruments, San Diego, CA). Activators and inhibitors (herbal formulation, eugenol, ionomycin, tannic acid, forskolin, CFTRinh-172, ATP, Eact, T16Ainh-A01) were added to the apical solution and an equal volume of vehicle was added at the same time to the basolateral solution. Symmetrical HCO3 ^−-buffered solutions were used for T84 cells. For FRT cells, the hemichambers were filled with a half-Cl^− solution (apical) and the HCO3 ^−-buffered solution (basolateral), and the basolateral membrane was permeabilized with 250 µg/mL amphotericin B. Cells were bathed for a 10 min stabilization period and aerated with 95% O2/5% CO2 at 37°C or room temperature. Short-circuit current was measured using an EVC4000 Multi-Channel V/I Clamp (World Precision Instruments, Sarasota, FL).

human TMEM16A [2] = molecular target: T2, human TMEM16A; test: Plate-reader YFP fluorescence assay of TMEM16A-mediated I- influx in FRT cells; format: cell-based
Description: as §1, with “HPLC grade solvents were purchased from Fisher Scientific (Fairlawn, VA) and EMD Chemical Inc. (Philadelphia, PA). Eugenol and eugenol analog 2 were purchased from Sigma-Aldrich (St. Louis, MO). Other eugenol analogs were purchased from Fisher Scientific (Pittsburgh, PA).” left out
YFP fluorescence measurements in TMEM16A expressing FRT cells were carried out on a fluorescence plate reader (Optima; BMG Labtech, Durham, NC) equipped with dual syringe pumps and 500±10 nm excitation and 535±15 nm emission filters as described. […] After 10 min incubation, each well was assayed individually for TMEM16A-mediated I^− influx by recording fluorescence continuously (400 ms per point) for 2 s (baseline), followed by addition of 100 µL of a 140 mM I^− solution containing 200 µM ATP. The initial rate of I^− influx was computed from fluorescence data by non-linear regression.

tracheal smooth muscle = tested on: tracheal smooth muscle; parameters: method as in PMID 21077946; settings: read-out: IC50 for inhibition of tracheal smooth muscle contraction; cited from earlier work
[3] = tested on: Ca2+ current in cardiac myocytes; parameters: method as in PMID 15550789; settings: read-out: IC50 for inhibition of Ca2+ current; cited from earlier work
TMEM16A = test: Whole-cell patch-clamp on TMEM16A-expressing FRT cells; format: cell-based, human; settings: 150 µM eugenol, 5 µM Eact, ±80 mV
Description: Whole-cell recordings were made at room temperature on TMEM16A-expressing FRT cells as described. The pipette solution contained (in mM): 130 CsCl, 0.5 EGTA, 1 MgCl2, 1 Tris-ATP, and10 HEPES (pH 7.2). The bath solution contained (in mM): 140 NMDG-Cl, 1 CaCl2, 1 MgCl2, 10 glucose and 10 HEPES (pH 7.4). TMEM16A was activated by 5 µM Eact and then inhibited by 150 µM eugenol. Whole-cell currents were elicited by applying hyperpolarizing and depolarizing voltage pulses from a holding potential of 0 mV to potentials between −80 mV and +80 mV in 20 mV steps. Currents were digitized, filtered at 5 kHz, and sampled at 1 kHz.

mouse ileum = test: Intestinal smooth muscle contraction, mouse ileal segments ex vivo
Description: Wild type CD1 mice (age 8–10 weeks) were killed by avertin overdose (200 mg/kg). The ileum was removed and washed with ice-cold HCO3 ^−-buffered solution. The ends of the ileal segments were tied with silk thread and connected to a force transducer. Ileal segments were equilibrated for 60 min with a resting force of ∼1 mN, with changes of the bathing solution every 15 min. […] Data were recorded using MP100, Biopac digital acquisition system and analyzed using Acknowledge 3.5.7 software.

[4] = cited from earlier work
[5] = tested on: cytoplasmic Ca2+ elevation in FRT cells; test: Cytoplasmic Ca2+ measurement (Fluo-4) in FRT cells; format: cell-based; settings: Fluo-4 fluorescence, 10 min incubation
Description: FRT cells in 96-well plates were loaded with Fluo-4 NW (Invitrogen, Carlsbad, CA) at 48 h after plating. Fluo-4 fluorescence was measured continuously using a FLUOstar Optima fluorescence plate reader (BMG Labtechnologies) equipped with syringe pump for addition of ATP.

[6] = tested on: hyperpolarization-activated cyclic nucleotide-gated Na+ and K+ channels; parameters: method as in earlier work; settings: trigeminal ganglion neurons; ref 27 (Yeon et al.); read-out: IC50 for inhibition of HCN channels; cited from earlier work
[7] = tested on: CaCC in T84 human colonic epithelial cells; test: Short-circuit current in T84 cells (ATP-stimulated native CaCC Cl- current); format: cell-based; settings: 100 µM tannic acid
Description: as §2

[8] = rat, oral 40 mg/kg, ref 30 (Lionnet et al.)

O=C(O)c1ccc(/C=C2\SC(=S)N(c3cccc(C(F)(F)F)c3)C2=O)cc1 [CFTRinh-172, reference compound]
inhibition of CFTR Cl- current (CFTR; 10 µM CFTRinh-172): completely inhibited

CCc1c(C)nc(SCC(=O)Nc2nc(-c3ccc(OC)cc3)cs2)[nH]c1=O [T16Ainh-A01, reference compound]
inhibition of TMEM16A Cl- current by 1 µM T16Ainh-A01 (human TMEM16A [1]; 1 µM): ~50%
inhibition of Eact-stimulated TMEM16A Cl- current (human TMEM16A [1]; Eact 10 µM, 10 µM T16Ainh-A01): completely inhibited; also recorded: totally inhibited

C=CCc1ccc(O)c(OC)c1 [compound 1, 4-allyl-2-methoxyphenol]
effect on CFTR Cl- conductance (CFTR; eugenol up to 1 mM): little effect
inhibition at 200 µM (human TMEM16A [2]; FRT): 51 ± 7%
extent of inhibition of TMEM16A Cl- conductance (human TMEM16A [1]): fully inhibited
inhibition at 1000 µM (human TMEM16A [1]; FRT, read-out: inhibition of TMEM16A at 1 mM): > 95%
IC50 (human TMEM16A [1]; IC50 for inhibition of TMEM16A Cl- current, Eact (10 µM)-stimulated short-circuit current, FRT cells): 154 µM and ~150 µM
inhibition of ionomycin-activated TMEM16A Cl- current (human TMEM16A [1]; eugenol added 5 min prior to 1 µM ionomycin, amphotericin B permeabilized, Cl- gradient): concentration-dependent inhibition
IC50 (tracheal smooth muscle): ~600 µM
IC50 [3]: ~300 µM
block mechanism of TMEM16A chloride current (TMEM16A): voltage-independent block
IC50 (mouse ileum; Mus musculus, read-out: IC50 for inhibition of intestinal smooth muscle contraction): ~150 µM
inhibition of ileal contractions following activation by Eact (mouse ileum; atropine added initially): inhibition
effect on contraction frequency (mouse ileum; mouse ileal segments ex vivo): small effect
effect on resting and maximal tone (mouse ileum; mouse ileal segments ex vivo): more marked effect
inhibition of spontaneous intestinal contractions (mouse ileum; mouse ileal segments ex vivo, listed as Eugenol): strong inhibition
inhibition of spontaneous intestinal contractions (mouse ileum; mouse ileal segments ex vivo, listed as eugenol): inhibited by eugenol in a dose-dependent manner
serum concentration following intravenous administration ([4]; intravenous): 180000 nM
concentration in brain and spinal cord after oral administration [4, 8]: 2800 nM
concentration in serum after oral administration [4, 8]: 600 nM
serum concentration (similar oral study) ([4]; rats): 1500 nM
effect on cytoplasmic Ca2+ in response to ATP [5]: did not inhibit
IC50 [6]: 157 µM

CCCc1ccc(O)c(OC)c1 [compound 5]
% inhibition at 200 μM (human TMEM16A [2]): 38 ± 7%

tannic acid
inhibition of ATP-stimulated CaCC Cl- current [7]: completely inhibited

Reference: publication PMC3364195, “Fractionation of a Herbal Antidiarrheal Medicine Reveals Eugenol as an Inhibitor of Ca^2+-Activated Cl^− Channel TMEM16A” (PLoS ONE, 2012)
